The values that follow come from patent US5760036A, “Aminediol protease inhibitors” (E. R. Squibb & Sons, Inc., priority 1995, dated 1998).

The target in this experiment is T1, HIV protease (Human immunodeficiency virus type 1 group M subtype B, UniProt P04585).
T1 construct: and purified protease
Put plainly: HIV Protease Assay. The format is biochemical. The settings on record: 4% DMSO, 450 μM substrate, pH 5.5, 30 minutes at 37° C., RP-HPLC; for inhibition at 10 µM: pH 5.5, 10 μM inhibitor, read-out: HIV Protease % Inhibition at 10 μM; for HIV Protease % Inhibition at 10 μM: 10 μM inhibitor. As to the method:
An HIV protease standard assay was performed in a 60 μl reaction medium containing 50 mM sodium acetate, pH 5.5, 100 μg/ml bovine serum albumen,450 μM substrate (H2 N-Val-Ser-Gln-Asn-(β-naphthyl-alanine)-Pro-Val-Ile-OH), and purified protease. The reaction medium was incubated for 30 minutes at 37° C., quenched by the addition of 140 μl 5% H3 PO4, then analyzed by reverse phase HPLC using UV220 detection. In a typical control assay, 7% of the substrate was hydrolyzed. Aminediol inhibitors of the present invention, listed in the following Table 1, were then employed in the assay, for which purpose they were prepared as a […] solution in DMSO, then diluted to 30 μM with 50 mM sodium acetate/bovine serum albumen. This working stock was then diluted three-fold into the protease reaction medium, for a final concentration of 10 μM inhibitor and 4% DMSO.

The term inhibition denotes the share of the control response that was lost under treatment.

For `CC(C)(C)OC(=O)NCC(O)[C@H](Cc1ccccc1)NC[C@@H](O)[C@H](Cc1ccccc1)NC(=O)OC(C)(C)C` (mixture of isomers) [Compound 188, [3S-[3R*(2S*,3R*)]]-[3-[[3-[[(1,1-Dimethylethoxy)carbonyl]amino]-2-hydroxy-4-phenyl-butyl]amino]-2-hydroxy-4-phenylbutyl]carbamic acid, 1,1-dimethylethyl ester, 2:1 diastereomer mixture], the inhibition at 10 µM amounted to 21%.
Same read-out and setting: then `CC(C)(C)OC(=O)N[C@@H](Cc1ccccc1)[C@H](O)CNC[C@@H](O)[C@H](Cc1ccccc1)NC(=O)NCc1ccccc1` (relative stereo) [Compound 57, [1R*,2S*(2S*,3R*)]-[2-Hydroxy-3[[2-hydroxy-4-phenyl-3-[[[(phenylmethyl)amino]-carbonyl]amino]butyl]amino]-1-(phenylmethyl)-propyl]carbamic acid, 1,1-dimethylethyl ester], with 46%; and `CC(C)[C@@H](NC(=O)NCc1nc2ccccc2[nH]1)C(=O)N[C@@H](Cc1ccccc1)[C@H](O)CNC[C@@H](O)[C@H](Cc1ccccc1)NC(=O)OC(C)(C)C` (relative stereo) [Compound 274, [1S*,2R*(2R*,3S*)]-N^2-[[(1H-Benzimidazol-2-ylmethyl)amino]carbonyl]-N-[3-[[3-[[(1,1-dimethylethoxy)carbonyl]amino]-2-hydroxy-4-phenylbutyl]amino]-2-hydroxy-1-(phenylmethyl)propyl]-D-valinamide], with 99%.
Same read-out and setting: then `COC(=O)N[C@@H](C(=O)N[C@@H](Cc1ccccc1)[C@H](O)CNC[C@@H](O)[C@H](Cc1ccccc1)NC(=O)OC(C)(C)C)C(C)(C)C` (relative stereo) [Compound 340, [1S*,2R*(2R*,3S*)]-N-[3-[[3-[[(1,1-Dimethylethoxy)carbonyl]amino]-2-hydroxy-4-phenylbutyl]amino]-2-hydroxy-1-(phenylmethyl)propyl]-N^2-(2-methoxycarbonyl)-3-methyl-D-valinamide], with 56%; and `COC(=O)N[C@H](C(=O)N[C@@H](Cc1ccccc1)[C@H](O)CNC[C@@H](O)[C@H](Cc1ccccc1)NC(=O)[C@](C)(O)C(C)(C)C)C(C)(C)C` (relative stereo) [Compound 383, [1R*,2S*[2S*, 3R*(S*)]]-N-[2-Hydroxy-3-[[2-hydroxy-3-[(2-hydroxy-2,3,3-trimethyl-1-oxobutyl)amino]-4-phenylbutyl]amino]-1-(phenylmethyl)propyl]-N^2-(2-methoxycarbonyl)-3-methyl-L-valinamide], with 99%.
Same read-out and setting: then `CC(C)(C)OC(=O)N1CCC[C@H]1C(O)CNCC(O)[C@@H]1CCCN1C(=O)OC(C)(C)C` (single isomer, unassigned) [Compound 7], with 8%.
In the case of `CC(C)(C)OC(=O)N[C@@H](Cc1ccccc1)[C@H](O)CNC[C@@H](O)[C@H](Cc1ccccc1)NC(=O)C1NC(=O)CC1(C)C` (single isomer, unassigned) [Compound 266, [1S-[1R*,2S*(2S*,3R*)]]-[3-[[3-[[(3,3-Dimethyl-5-oxo-2-pyrrolidinyl)carbonyl]amino]-2-hydroxy-4-phenylbutyl]amino]-2-hydroxy-1-(phenylmethyl)propyl]carbamic acid, 1,1-dimethylethyl ester], the “HIV Protease % Inhibition at 10 μM” value was determined as 69%.
Take `CC(C)(C)OC(=O)N[C@@H](Cc1ccccc1)[C@H](O)CNC[C@@H](O)[C@H](Cc1ccccc1)NC(=O)C1NC(=O)OC1(C)C` (single isomer, unassigned; isomer a) [Compound 239, [1S-[1R*,2S*(2S*,3R*)]]-[3-[[3-[[(5,5-Dimethyl-2-oxo-4-oxazolidinyl)carbonyl]amino]-2-hydroxy-4-phenylbutyl]amino]-2-hydroxy-1-(phenylmethyl)propyl]carbamic acid, 1,1-dimethylethyl ester, isomer A]: the “HIV Protease % Inhibition at 10 μM” value came to 37%.
Consider `CC(C)(C)OC(=O)N[C@@H](Cc1ccccc1)[C@H](O)CNC[C@@H](O)[C@H](Cc1ccccc1)NC(=O)C1(O)CCCCC1(C)C` (single isomer, unassigned; isomer a) [Compound 361, [1S-[1R*,2S*(2S*,3R*)]]-[3-[[3-[[2 , 2-Dimethyl-1-hydroxycyclohexyl)carbonyl]amino]-2-hydroxy-4-phenylbutyl]amino]-2-hydroxy-1-(phenylmethyl) propyl]carbamic acid, 1,1-dimethylethyl ester, isomer A], for which the inhibition at 10 µM is 97%.
Consider `COC(=O)NC(C)(C(=O)N[C@@H](Cc1ccccc1)[C@H](O)CNC[C@@H](O)[C@H](Cc1ccccc1)NC(=O)OC(C)(C)C)C(C)(C)C` (single isomer, unassigned; isomer a) [Compound 373], for which the “HIV Protease % Inhibition at 10 μM” value worked out at 85%.
The same measure, in the same setting: then `CC(C)(C)OC(=O)N[C@@H](Cc1ccccc1)[C@H](O)CNC[C@@H](O)[C@H](Cc1ccccc1)NC(=O)C1(O)CCc2ccccc21` (single isomer, unassigned; isomer a) [Compound 375, [1S-[1R*,2S*(2S*, 3R*)]]-[3-[[3-]](2,3-Dihydro-1-hydroxy-1H-inden-1-yl)carbonyl]amino]-2-hydroxy-4-phenylbutyl]amino]-2-hydroxy-1-(phenylmethyl)-propyl]carbamic acid, 1,1-dimethylethyl ester, isomer A], with 98%; and `CC(C)(C)OC(=O)N[C@@H](Cc1ccccc1)[C@H](O)CNC[C@@H](O)[C@H](Cc1ccccc1)NC(=O)C(C)(O)c1ccccn1` (single isomer, unassigned; isomer a) [Compound 381, [1S-[1R*,2S*(2S*, 3R*)]]-[2-Hydroxy-3-[[2-hydroxy-3-[[2-hydroxy-1-oxo-2-(2-pyridinyl)propyl]amino]-4-phenylbutyl]amino]-1-(phenylmethyl)propyl]carbamic acid, 1.1-dimethylethyl ester, isomer A], with 60%.
For `CNC(=O)C(O)(C(=O)N[C@@H](Cc1ccccc1)[C@H](O)CNC[C@@H](O)[C@H](Cc1ccccc1)NC(=O)OC(C)(C)C)C(C)(C)C` (single isomer, unassigned; isomer a) [Compound 384, [1S-[1R*,2S*(2S*, 3R*)]]-[3-[[3-[[2-Hydroxy-3,3-dimethyl-2-[(methylamino)carbonyl]-1-oxobutyl]amino]-2-hydroxy-4-phenylbutyl]amino]-2-hydroxy-1-(phenylmethyl)propyl]carbamic acid, 1,1-dimethylethyl ester, isomer A], the inhibition at 10 µM was 99%.
With `CC(C)(C)OC(=O)N[C@@H](Cc1ccccc1)[C@H](O)CNC[C@@H](O)[C@H](Cc1ccccc1)NC(=O)C(O)C(F)(F)F` (single isomer, unassigned; isomer b) [Compound 272, [1S-[1R*,2S*(2S*,3R*)]]-[2-Hydroxy-1-(phenylmethyl)-3-[[2-hydroxy-4-phenyl-3-[(3.3,3-trifluoro-2-hydroxy-1-oxopropyl)amino]butyl]amino]propyl]carbamic acid,1,1-dimethylethyl ester (isomer B)], the “HIV Protease % Inhibition at 10 μM” value is listed as 87%.
Same read-out and setting: the result for `CC(C)(C)OC(=O)N[C@@H](Cc1ccccc1)[C@H](O)CNC[C@@H](O)[C@H](Cc1ccccc1)NC(=O)C(C)(O)C(F)(F)F` (single isomer, unassigned; isomer b) [Compound 294, [1S-[1R*,2S*(2S*,3R*)]]-[2-Hydroxy-3-[2-hydroxy-1-oxo-2-(trifluoromethyl)propyl]amino]-4-phenylbutyl]amino]-1-(phenylmethyl)propyl]carbamic acid, 1,1-dimethylethylester (isomer B)] reads 89%; that for `CC(C)(C)OC(=O)N[C@@H](Cc1ccccc1)[C@H](O)CNC[C@@H](O)[C@H](Cc1ccccc1)NC(=O)C(CCO)C(C)(C)C` (single isomer, unassigned; isomer b) [Compound 313, [1S-[1R*, 2S* (2S*, 3R*)][-[3-[[3-[[2-(1,1-Dimethylethyl)-4-hydroxy-1-oxobutyl]amino]-2-hydroxy-4-phenylbutyl]amino]-2-hydroxy-1-(phenylmethyl)propyl]carbamic acid, 1,1-dimethylethyl ester, isomer B], 65%; that for `CC(C)(C)OC(=O)N[C@@H](Cc1ccccc1)[C@H](O)CNC[C@@H](O)[C@H](Cc1ccccc1)NC(=O)C1(O)CCCCC1(C)C` (single isomer, unassigned; isomer b) [Compound 362, [1S-[1R*,2S*(2S*,3R*)]]-[3-[[3-[[2,2-Dimethyl-1-hydroxycyclohexyl)carbonyl]amino]-2-hydroxy-4-phenylbutyl]amino]-2-hydroxy-1-(phenylmethyl) propyl]carbamic acid, 1,1-dimethylethyl ester, isomer B], 98%.
On the same count and under the same terms, then `CC(C)(C)OC(=O)N[C@@H](Cc1ccccc1)[C@H](O)CNC[C@@H](O)[C@H](Cc1ccccc1)NC(=O)C1(O)COCC1(C)C` (single isomer, unassigned; isomer b) [Compound 365, [1S-[1R*,2S*(2S*,3R*)]]-[2-Hydroxy-3-[[tetrahydro-3-hydroxy-4,4-dimethyl-3-furanyl)carbonyl]amino]-4-phenylbutyl]amino]-l-(phenylmethyl)-propyl]carbamic acid, 1,1-dimethylethyl ester, Isomer B], with 72%.
